From ChEMBL document CHEMBL1201862, “PubChem BioAssay data set” (2004)
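A five-concentration, 48-hour dose response in 96-well plates underlies each endpoint, interpolated linearly between surrounding concentrations. Abbreviation: GI50, concentration required for 50% inhibition of growth.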 Calls of active or inactive are those of the source. No stated cut-off is given here; in the data, active = GI50 up to about 1.1 µM and inactive = higher.

Tests used:
Assay in all cases: growth of human tumour cells (NCI), 48 h
UACC-257 = tested on: UACC-257
SF-539 = tested on: SF-539
SK-MEL-2 = tested on: SK-MEL-2
OVCAR-8 = tested on: OVCAR-8
SN12C = tested on: SN12C
A549 = tested on: A549
LXFL 529 = tested on: LXFL 529
SF-268 = tested on: SF-268
NCI-H226 = tested on: NCI-H226
DLD-1 = tested on: DLD-1
NCI-H522 = tested on: NCI-H522
HCT-15 = tested on: HCT-15
EKVX = tested on: EKVX
K562 = tested on: K562
NCI-H460 = tested on: NCI-H460
SR = tested on: SR
SNB-19 = tested on: SNB-19
OVCAR-4 = tested on: OVCAR-4
CCRF-CEM = tested on: CCRF-CEM
HOP-18 = tested on: HOP-18
OVCAR-3 = tested on: OVCAR-3
NCI-H23 = tested on: NCI-H23
TK-10 = tested on: TK-10
UACC-62 = tested on: UACC-62
RPMI-8226 = tested on: RPMI-8226
SW-620 = tested on: SW-620
HOP-92 = tested on: HOP-92
IGROV-1 = tested on: IGROV-1
HCT-116 = tested on: HCT-116
SK-OV-3 = tested on: SK-OV-3
CAKI-1 = tested on: CAKI-1
HOP-62 = tested on: HOP-62
M19-MEL = tested on: M19-MEL
U-251 = tested on: U-251
HT-29 = tested on: HT-29
SK-MEL-28 = tested on: SK-MEL-28
M14 = tested on: M14
KM-20L2 = tested on: KM-20L2
RXF 393 = tested on: RXF 393
SNB-78 = tested on: SNB-78
HCC 2998 = tested on: HCC 2998
SK-MEL-5 = tested on: SK-MEL-5
SNB-75 = tested on: SNB-75
UO-31 = tested on: UO-31
LOX IMVI = tested on: LOX IMVI
KM12 = tested on: KM12
XF498 = tested on: XF498
COLO 205 = tested on: COLO 205
786-0 = tested on: 786-0
DMS-273 = tested on: DMS-273
HL-60 = tested on: HL-60
ACHN = tested on: ACHN
SF-295 = tested on: SF-295
MOLT-4 = tested on: MOLT-4
A498 = tested on: A498
DMS-114 = tested on: DMS-114
Malme-3M = tested on: Malme-3M
OVCAR-5 = tested on: OVCAR-5

Nc1nc(Cl)cc(NCCCCCCCCNc2cc(Cl)nc(N)n2)n1
GI50 (UACC-257): 2.91 µM (inactive) | GI50 (SF-539): 28.7 µM (inactive) | GI50 (SK-MEL-2): 13.5 µM (inactive) | GI50 (OVCAR-8): 11.7 µM (inactive) | GI50 (SN12C): 57.4 µM (inactive) | GI50 (A549): 3.56 µM (inactive) | GI50 (LXFL 529): 1.86 µM (inactive) | GI50 (SF-268): 36.8 µM (inactive) | GI50 (NCI-H226): 6.24 µM (inactive) | GI50 (DLD-1): 10.2 µM (inactive) | GI50 (NCI-H522): 1.13 µM (inactive) | GI50 (HCT-15): 8.59 µM | GI50 (EKVX): > 100 µM (inactive) | GI50 (K562): 2.2 µM (inactive) | GI50 (NCI-H460): 31.3 µM (inactive) | GI50 (SR): 3.61 µM (inactive) | GI50 (SNB-19): > 100 µM (inactive) | GI50 (OVCAR-4): 4.29 µM (inactive) | GI50 (CCRF-CEM): 73.3 µM (inactive) | GI50 (HOP-18): 27.1 µM (inactive) | GI50 (OVCAR-3): 3.2 µM (inactive) | GI50 (NCI-H23): 1.22 µM (inactive) | GI50 (TK-10): 14.9 µM (inactive) | GI50 (UACC-62): 1.36 µM (inactive) | GI50 (RPMI-8226): 2.4 µM (inactive) | GI50 (SW-620): 36.8 µM (inactive) | GI50 (HOP-92): 7.76 µM (inactive) | GI50 (IGROV-1): 23.7 µM (inactive) | GI50 (HCT-116): 2.39 µM (inactive) | GI50 (SK-OV-3): > 100 µM (inactive) | GI50 (CAKI-1): 8.81 µM (inactive) | GI50 (HOP-62): 27.8 µM (inactive) | GI50 (M19-MEL): 16 µM (inactive) | GI50 (U-251): 25.6 µM (inactive) | GI50 (HT-29): 12.3 µM (inactive) | GI50 (SK-MEL-28): 31.8 µM (inactive) | GI50 (M14): 19.2 µM (inactive) | GI50 (KM-20L2): 9.48 µM (inactive) | GI50 (RXF 393): 12.2 µM (inactive) | GI50 (SNB-78): 71.6 µM (inactive) | GI50 (HCC 2998): 65.6 µM (inactive) | GI50 (SK-MEL-5): 0.675 µM (active) | GI50 (SNB-75): 25.9 µM (inactive) | GI50 (UO-31): 22 µM (inactive) | GI50 (LOX IMVI): 3.82 µM (inactive) | GI50 (KM12): 14.7 µM (inactive) | GI50 (XF498): 1.64 µM (inactive) | GI50 (COLO 205): 26.4 µM (inactive) | GI50 (786-0): 25.8 µM (inactive) | GI50 (DMS-273): 8.79 µM (inactive) | GI50 (HL-60): 1.46 µM (inactive) | GI50 (ACHN): 0.221 µM (active) | GI50 (SF-295): 1.48 µM (inactive)

CN1C(=O)N(c2nc3ccccc3[nH]2)C(C)(C)C1=O
GI50 (UACC-257): > 100 µM (inactive) | GI50 (SF-539): > 100 µM (inactive) | GI50 (MOLT-4): > 100 µM (inactive) | GI50 (SK-MEL-2): > 100 µM (inactive) | GI50 (OVCAR-8): > 100 µM (inactive) | GI50 (SN12C): > 100 µM (inactive) | GI50 (A549): > 100 µM (inactive) | GI50 (LXFL 529): > 100 µM (inactive) | GI50 (SF-268): > 100 µM (inactive) | GI50 (NCI-H226): > 100 µM (inactive) | GI50 (DLD-1): > 100 µM (inactive) | GI50 (NCI-H522): > 100 µM (inactive) | GI50 (HCT-15): > 100 µM | GI50 (EKVX): > 100 µM (inactive) | GI50 (K562): > 100 µM (inactive) | GI50 (SR): > 100 µM (inactive) | GI50 (SNB-19): > 100 µM (inactive) | GI50 (OVCAR-4): > 100 µM (inactive) | GI50 (CCRF-CEM): > 100 µM (inactive) | GI50 (HOP-18): > 100 µM (inactive) | GI50 (OVCAR-3): > 100 µM (inactive) | GI50 (A498): > 100 µM (inactive) | GI50 (NCI-H23): > 100 µM (inactive) | GI50 (UACC-62): > 100 µM (inactive) | GI50 (RPMI-8226): > 100 µM (inactive) | GI50 (SW-620): > 100 µM (inactive) | GI50 (DMS-114): > 100 µM (inactive) | GI50 (IGROV-1): > 100 µM (inactive) | GI50 (HCT-116): > 100 µM (inactive) | GI50 (SK-OV-3): > 100 µM (inactive) | GI50 (HOP-62): > 100 µM (inactive) | GI50 (M19-MEL): > 100 µM (inactive) | GI50 (U-251): > 100 µM (inactive) | GI50 (HT-29): > 100 µM (inactive) | GI50 (SK-MEL-28): > 100 µM (inactive) | GI50 (M14): > 100 µM (inactive) | GI50 (KM-20L2): > 100 µM (inactive) | GI50 (RXF 393): > 100 µM (inactive) | GI50 (SNB-78): > 100 µM (inactive) | GI50 (Malme-3M): > 100 µM (inactive) | GI50 (SK-MEL-5): > 100 µM (inactive) | GI50 (SNB-75): > 100 µM (inactive) | GI50 (UO-31): > 100 µM (inactive) | GI50 (LOX IMVI): > 100 µM (inactive) | GI50 (KM12): > 100 µM (inactive) | GI50 (XF498): > 100 µM (inactive) | GI50 (COLO 205): > 100 µM (inactive) | GI50 (786-0): > 100 µM (inactive) | GI50 (DMS-273): > 100 µM (inactive) | GI50 (HL-60): > 100 µM (inactive) | GI50 (ACHN): > 100 µM (inactive) | GI50 (SF-295): > 100 µM (inactive)

CCCOP(=S)(N1CC1)N1CC1
GI50 (UACC-257): 24.8 µM (inactive) | GI50 (SF-539): > 100 µM (inactive) | GI50 (MOLT-4): > 100 µM (inactive) | GI50 (SK-MEL-2): > 100 µM (inactive) | GI50 (OVCAR-8): > 100 µM (inactive) | GI50 (SN12C): > 100 µM (inactive) | GI50 (A549): > 100 µM (inactive) | GI50 (SF-268): > 100 µM (inactive) | GI50 (NCI-H226): 75.9 µM (inactive) | GI50 (DLD-1): > 100 µM (inactive) | GI50 (NCI-H522): > 100 µM (inactive) | GI50 (HCT-15): > 100 µM | GI50 (EKVX): > 100 µM (inactive) | GI50 (K562): > 100 µM (inactive) | GI50 (NCI-H460): > 100 µM (inactive) | GI50 (SR): > 100 µM (inactive) | GI50 (SNB-19): > 100 µM (inactive) | GI50 (OVCAR-4): > 100 µM (inactive) | GI50 (CCRF-CEM): > 100 µM (inactive) | GI50 (HOP-18): 40.7 µM (inactive) | GI50 (OVCAR-3): > 100 µM (inactive) | GI50 (A498): > 100 µM (inactive) | GI50 (NCI-H23): > 100 µM (inactive) | GI50 (TK-10): > 100 µM (inactive) | GI50 (UACC-62): > 100 µM (inactive) | GI50 (RPMI-8226): > 100 µM (inactive) | GI50 (SW-620): > 100 µM (inactive) | GI50 (OVCAR-5): > 100 µM (inactive) | GI50 (DMS-114): > 100 µM (inactive) | GI50 (HOP-92): > 100 µM (inactive) | GI50 (IGROV-1): > 100 µM (inactive) | GI50 (HCT-116): > 100 µM (inactive) | GI50 (SK-OV-3): > 100 µM (inactive) | GI50 (CAKI-1): > 100 µM (inactive) | GI50 (HOP-62): > 100 µM (inactive) | GI50 (M19-MEL): > 100 µM (inactive) | GI50 (U-251): > 100 µM (inactive) | GI50 (HT-29): > 100 µM (inactive) | GI50 (SK-MEL-28): > 100 µM (inactive) | GI50 (M14): > 100 µM (inactive) | GI50 (KM-20L2): > 100 µM (inactive) | GI50 (RXF 393): > 100 µM (inactive) | GI50 (SNB-78): > 100 µM (inactive) | GI50 (HCC 2998): > 100 µM (inactive) | GI50 (Malme-3M): > 100 µM (inactive) | GI50 (SK-MEL-5): > 100 µM (inactive) | GI50 (SNB-75): 48.3 µM (inactive) | GI50 (UO-31): > 100 µM (inactive) | GI50 (LOX IMVI): > 100 µM (inactive) | GI50 (KM12): > 100 µM (inactive) | GI50 (XF498): > 100 µM (inactive) | GI50 (COLO 205): > 100 µM (inactive) | GI50 (786-0): > 100 µM (inactive) | GI50 (DMS-273): > 100 µM (inactive) | GI50 (HL-60): > 100 µM (inactive) | GI50 (ACHN): > 100 µM (inactive) | GI50 (SF-295): > 100 µM (inactive)
